Literature values in paper PMC10177510, “A Multicenter, Open-Label, Phase I/II Study of FN-1501 in Patients with Advanced Solid Tumors” (Cancers, 2023).

Test system: MOLM-13 xenograft
Details: preclinical, no reference given; cited from earlier work

Q: With `CN1CCN(Cc2ccc(NC(=O)c3[nH]ncc3Nc3ncnc4[nH]ccc34)cc2)CC1` [FN-1501] as the compound, how does the “Dose at which tumor growth reached stasis” value read?
A: The value was 20 mg/kg.
